Measured values: patent publication US20210045385A1, “PYRIDAZINONE-SUBSTITUTED KETOXIMES AS HERBICIDES” (FMC Corporation, priority 2018, published 2021)

Assays:
Assay type in all cases: in vivo
[1] = test system: barnyardgrass (Echinochloa crus-galli); test: Test A preemergence, visual plant response rating; conditions: for Barnyardgrass plant response rating: 125 g ai/ha, preemergence, 0 to 100 scale, 0 no effect, 100 complete control; for Barnyardgrass plant response rating (0 to 100 scale): 500 g ai/ha Preemergence, approx. 10 days
Excerpt: (§1) Seeds of plant species selected from barnyardgrass (Echinochloa crus-galli), kochia (Kochia scoparia), ragweed (common ragweed, Ambrosia elatior), Italian ryegrass (Lolium multiflorum), foxtail, giant (giant foxtail, Setaria faberii), foxtail, green (green foxtail, Setaria viridis), and pigweed (Amaranthus retroflexus) were planted into a blend of loam soil and sand and treated preemergence with a directed soil spray using test chemicals formulated in a non-phytotoxic solvent mixture which included a surfactant.
(§2) At the same time, plants selected from these weed species and also wheat (Triticum aestivum), corn (Zea mays), blackgrass (Alopecurus myosuroides), and galium (catchweed bedstraw, Galium aparine) were planted in pots containing the same blend of loam soil and sand and treated with postemergence applications of test chemicals formulated in the same manner. Plants ranged in height from 2 to 10 cm and were in the one- to two-leaf stage for the postemergence treatment. Treated plants and untreated controls were maintained in a greenhouse for approximately 10 days, after which time all treated plants were compared to untreated controls and visually evaluated for injury. Plant response ratings, summarized in Table A, are based on a 0 to 100 scale where 0 is no effect and 100 is complete control. A dash (-) response means no test result.

[2] = test system: foxtail, giant (giant foxtail, Setaria faberii); test: Test A preemergence, visual plant response rating; conditions: for Foxtail, Giant plant response rating: 125 g ai/ha, preemergence, 0 to 100 scale, 0 no effect, 100 complete control; for Foxtail, Giant plant response rating (0 to 100 scale): 500 g ai/ha Preemergence, approx. 10 days
Excerpt: as §1, §2

kochia (Kochia scoparia) [3] = test: Test A preemergence, visual plant response rating; conditions: for Kochia plant response rating: 125 g ai/ha, preemergence, 0 to 100 scale, 0 no effect, 100 complete control; for Kochia plant response rating (0 to 100 scale): 500 g ai/ha Preemergence, approx. 10 days
Excerpt: as §1, §2

[4] = test system: pigweed (Amaranthus retroflexus); test: Test A preemergence, visual plant response rating; conditions: for Pigweed plant response rating: 125 g ai/ha, preemergence, 0 to 100 scale, 0 no effect, 100 complete control; for Pigweed plant response rating (0 to 100 scale): 500 g ai/ha Preemergence, approx. 10 days
Excerpt: as §1, §2

[5] = test system: ragweed (common ragweed, Ambrosia elatior); test: Test A preemergence, visual plant response rating
Excerpt: as §1, §2

[6] = test system: Italian ryegrass (Lolium multiflorum); test: Test A preemergence, visual plant response rating; conditions: for Ryegrass, Italian plant response rating: 125 g ai/ha, preemergence, 0 to 100 scale, 0 no effect, 100 complete control; for Ryegrass, Italian plant response rating (0 to 100 scale): 500 g ai/ha Preemergence, approx. 10 days
Excerpt: as §1, §2

[7] = test system: barnyardgrass (Echinochloa crus-galli); test: Test B flooded paddy test, visual plant response rating; conditions: 250 g ai/ha, Flood, applied to paddy water, 2-leaf stage, evaluated after 13 to 15 days
Procedure: (§3) Plant species in the flooded paddy test selected from rice (Oryza sativa), sedge, umbrella (small-flower umbrella sedge, Cyperus difformis), ducksalad (Heteranhera limosa), and barnyardgrass (Echinochloa crus-galli) were grown to the 2-leaf stage for testing. At time of treatment, test pots were flooded to 3 cm above the soil surface treated by application of test compounds directly to the paddy water, and then maintained at that water depth for the duration of the test. Treated plants and controls were maintained in a greenhouse for 13 to 15 days, after which time all species were compared to controls and visually evaluated. […] A dash (-) response means no test result.

rice (Oryza sativa) = test: as above; conditions: 250 g ai/ha, Flood, applied to paddy water, 2-leaf stage, evaluated after 13 to 15 days
Procedure: as §3

[8] = test system: sedge, umbrella (small-flower umbrella sedge, Cyperus difformis); test: as above; conditions: 250 g ai/ha, Flood, applied to paddy water, 2-leaf stage, evaluated after 13 to 15 days
Procedure: as §3

[9] = test system: ducksalad (Heteranhera limosa); test: as above; conditions: 250 g ai/ha, Flood, applied to paddy water, 2-leaf stage, evaluated after 13 to 15 days
Procedure: as §3

[10] = test system: galium (catchweed bedstraw, Galium aparine); test: Test A postemergence, visual plant response rating; conditions: for Galium plant response rating (0 to 100 scale): 500 g ai/ha, postemergence, 0 is no effect, 100 is complete control; for Galium plant response rating: Postemergence, 125 g ai/ha, 0 to 100 scale (0 no effect, 100 complete control)
Excerpt: as §1, §2

[11] = test system: wheat (Triticum aestivum); test: Test A postemergence, visual plant response rating; conditions: for Wheat plant response rating (0 to 100 scale): 500 g ai/ha, postemergence, 0 is no effect, 100 is complete control; for Wheat plant response rating: Postemergence, 125 g ai/ha, 0 to 100 scale (0 no effect, 100 complete control)
Excerpt: as §1, §2

corn (Zea mays) = test: Test A postemergence, visual plant response rating; conditions: for Corn plant response rating (0 to 100 scale): 500 g ai/ha, postemergence, 0 is no effect, 100 is complete control; for Corn plant response rating: Postemergence, 125 g ai/ha, 0 to 100 scale (0 no effect, 100 complete control)
Excerpt: as §1, §2

[12] = test system: barnyardgrass (Echinochloa crus-galli); test: Test A postemergence, visual plant response rating; conditions: for Barnyardgrass plant response rating (0 to 100 scale): 500 g ai/ha, postemergence, 0 is no effect, 100 is complete control; for Barnyardgrass plant response rating: Postemergence, 125 g ai/ha, 0 to 100 scale (0 no effect, 100 complete control)
Excerpt: as §1, §2

[13] = test system: foxtail, giant (giant foxtail, Setaria faberii); test: Test A postemergence, visual plant response rating; conditions: for Foxtail, Giant plant response rating (0 to 100 scale): 500 g ai/ha, postemergence, 0 is no effect, 100 is complete control; for Foxtail, Giant plant response rating: Postemergence, 125 g ai/ha, 0 to 100 scale (0 no effect, 100 complete control)
Excerpt: as §1, §2

[14] = test system: blackgrass (Alopecurus myosuroides); test: Test A postemergence, visual plant response rating; conditions: for Blackgrass plant response rating (0 to 100 scale): 500 g ai/ha, postemergence, 0 is no effect, 100 is complete control; for Blackgrass plant response rating: Postemergence, 125 g ai/ha, 0 to 100 scale (0 no effect, 100 complete control)
Excerpt: as §1, §2

kochia (Kochia scoparia) [15] = test: Test A postemergence, visual plant response rating; conditions: for Kochia plant response rating (0 to 100 scale): 500 g ai/ha, postemergence, 0 is no effect, 100 is complete control; for Kochia plant response rating: Postemergence, 125 g ai/ha, 0 to 100 scale (0 no effect, 100 complete control)
Excerpt: as §1, §2

[16] = test system: pigweed (Amaranthus retroflexus); test: Test A postemergence, visual plant response rating; conditions: for Pigweed plant response rating (0 to 100 scale): 500 g ai/ha, postemergence, 0 is no effect, 100 is complete control; for Pigweed plant response rating: Postemergence, 125 g ai/ha, 0 to 100 scale (0 no effect, 100 complete control)
Excerpt: as §1, §2

[17] = test system: ragweed (common ragweed, Ambrosia elatior); test: Test A postemergence, visual plant response rating; conditions: for Ragweed plant response rating (0 to 100 scale): 500 g ai/ha, postemergence, 0 is no effect, 100 is complete control; for Ragweed plant response rating: Postemergence, 125 g ai/ha, 0 to 100 scale (0 no effect, 100 complete control)
Excerpt: as §1, §2

[18] = test system: Italian ryegrass (Lolium multiflorum); test: Test A postemergence, visual plant response rating; conditions: for Ryegrass, Italian plant response rating (0 to 100 scale): 500 g ai/ha, postemergence, 0 is no effect, 100 is complete control; for Ryegrass, Italian plant response rating: Postemergence, 125 g ai/ha, 0 to 100 scale (0 no effect, 100 complete control)
Excerpt: as §1, §2

Compound | Barnyardgrass plant response rating [1] | Barnyardgrass plant response rating (0 to 100 scale) [1] | Foxtail, Giant plant response rating [2] | Foxtail, Giant plant response rating (0 to 100 scale) [2] | Kochia plant response rating (kochia (Kochia scoparia) [3]) | Kochia plant response rating (0 to 100 scale) (kochia (Kochia scoparia) [3]) | Pigweed plant response rating [4] | Pigweed plant response rating (0 to 100 scale) [4] | Ryegrass, Italian plant response rating [6] | Ryegrass, Italian plant response rating (0 to 100 scale) [6] | Plant response rating, Barnyardgrass (0 to 100 scale, 0 is no effect, 100 is complete control) [7] | Plant response rating, Rice (0 to 100 scale, 0 is no effect, 100 is complete control) (rice (Oryza sativa)) | Plant response rating, Sedge, Umbrella (0 to 100 scale, 0 is no effect, 100 is complete control) [8] | Plant response rating, Ducksalad (0 to 100 scale, 0 is no effect, 100 is complete control) [9] | Galium plant response rating (0 to 100 scale) [10] | Galium plant response rating [10] | Wheat plant response rating (0 to 100 scale) [11] | Wheat plant response rating [11] | Corn plant response rating (0 to 100 scale) (corn (Zea mays)) | Corn plant response rating (corn (Zea mays)) | other results
CON=C(c1c(Cl)ccc(C)c1F)c1c(O)c(C)nn(C)c1=O [Compound 101] | 0 | 10 | 0 | 10 | 0 | 10 | 0 | 10 | 0 | 40 | 0 | 0 | 0 | 0 | 80 | 80 | 0 | 0 | 0 | 0 | Ragweed plant response rating ([5]; 125 g ai/ha, preemergence, 0 to 100 scale, 0 no effect, 100 complete control): 20; Ragweed plant response rating (0 to 100 scale) ([5]; 500 g ai/ha Preemergence, approx. 10 days): 70; Barnyardgrass plant response rating (0 to 100 scale) [12]: 30; Barnyardgrass plant response rating [12]: 30; Foxtail, Giant plant response rating (0 to 100 scale) [13]: 20; Foxtail, Giant plant response rating [13]: 0; Blackgrass plant response rating (0 to 100 scale) [14]: 30; Blackgrass plant response rating [14]: 0; Kochia plant response rating (0 to 100 scale) (kochia (Kochia scoparia) [15]): 30; Kochia plant response rating (kochia (Kochia scoparia) [15]): 0; Pigweed plant response rating (0 to 100 scale) [16]: 40; Pigweed plant response rating [16]: 10; Ragweed plant response rating (0 to 100 scale) [17]: 60; Ragweed plant response rating [17]: 40; Ryegrass, Italian plant response rating (0 to 100 scale) [18]: 10; Ryegrass, Italian plant response rating [18]: 0
CON=C(c1cc(Cl)ccc1Cl)c1c(O)c(C)nn(C)c1=O [Compound 98] | 50 | 60 | 60 | 70 | 60 | 60 | 90 | 100 | 80 | 90 | 0 | 0 | 0 | 0 | 100 | 80 | 20 | 0 | 20 | 0 | Barnyardgrass plant response rating (0 to 100 scale) [12]: 80; Barnyardgrass plant response rating [12]: 50; Foxtail, Giant plant response rating (0 to 100 scale) [13]: 80; Foxtail, Giant plant response rating [13]: 40; Blackgrass plant response rating (0 to 100 scale) [14]: 90; Blackgrass plant response rating [14]: 80; Kochia plant response rating (0 to 100 scale) (kochia (Kochia scoparia) [15]): 80; Kochia plant response rating (kochia (Kochia scoparia) [15]): 60; Pigweed plant response rating (0 to 100 scale) [16]: 80; Pigweed plant response rating [16]: 70; Ragweed plant response rating (0 to 100 scale) [17]: 90; Ragweed plant response rating [17]: 80; Ryegrass, Italian plant response rating (0 to 100 scale) [18]: 80; Ryegrass, Italian plant response rating [18]: 80
CO/N=C(/c1c(OC(C)=O)c(Cl)nn(C)c1=O)c1cccc2ccccc12 [Compound 132] | 70 | 80 | 40 | 90 | 90 | 90 | 80 | 80 | 0 | 0 | 0 | 0 | 15 | 25 | 100 | 90 | 0 | 0 | 10 | 10 | Barnyardgrass plant response rating (0 to 100 scale) [12]: 60; Barnyardgrass plant response rating [12]: 20; Foxtail, Giant plant response rating (0 to 100 scale) [13]: 60; Foxtail, Giant plant response rating [13]: 40; Blackgrass plant response rating (0 to 100 scale) [14]: 60; Blackgrass plant response rating [14]: 40; Kochia plant response rating (0 to 100 scale) (kochia (Kochia scoparia) [15]): 80; Kochia plant response rating (kochia (Kochia scoparia) [15]): 60; Pigweed plant response rating (0 to 100 scale) [16]: 70; Pigweed plant response rating [16]: 40; Ragweed plant response rating (0 to 100 scale) [17]: 90; Ragweed plant response rating [17]: 90; Ryegrass, Italian plant response rating (0 to 100 scale) [18]: 20; Ryegrass, Italian plant response rating [18]: 10
